Data published in US8455000B2, “Resorbable polymer compositions for use in medicine, dentistry, and surgery” (Syncera Inc., priority 2006, dated 2013).
Where two headings read alike, the source gives them in different places.

Columns and labels:
[1] = Retention and release of dyes from PE-PEG matrix into phosphate buffered saline; format: physicochemical; conditions: dye only, tube 10
Method: Method: C50 PE-PEG16 was blended with PLURONIC™ L44 in a ratio of 7:3 w/w as described in Example 3. Rose Bengal (100 mg) and SR24 (100 mg) were mixed with 5 g aliquots of molten PE-PEG and PE-PEG/poloxamer blend, and maintained at 110° C. with mixing until the dye was fully dissolved.
Ten small (6 ml) glass test tubes were prepared as shown in Tables 5-6, Tubes 4-7 contained 0.5 g of the PE-PEG and PE-PEG/polymer samples mixed with dye, tubes 2, 3, 8 and 9 contained 0.5 g PE-PEG and PE-PEG/polymer samples (without dye) and 10 mg of dye added separately (after the PE-PEG or blend had solidified), tubes 1 and 10 contained only the dye, as controls.
Each glass test tube was affixed to the inside of a 50 ml polypropylene centrifuge tube with a silicone adhesive. Fifty ml of phosphate buffered saline was added to each of the tubes, and they were rocked gently for six days. At appropriate time points, the concentration of dye in the buffer was measured using a spectrophotometer. The SR24 dye was measured at 516 nm, the Rose Bengal concentration was estimated from the maximal absorption λmax from 540 nm to 560 nm.

[2] = in words; cited from earlier work

- solubility in water [1]: zero solubility
SMILES: Cc1ccccc1/N=N/c1ccc(/N=N/c2c(O)ccc3ccccc23)c(C)c1 [SR24, Solvent Red 24]
- solubility in water [2]: negligible solubility
